Where a name gives a salt, the structure may show the parent alone. Read-outs that look alike come from different tables or passages of the source. Each block holds one compound with its values, some of them ahead of it.
Key:
[1] = tested on: KCNQ channels; test: Whole-cell voltage-clamp electrophysiological recording in CHO cells transfected with KCNQ channels; type: cell-based; details: for I/I0: activation multiple, maximum induced current at −10 mV testing voltage after administration (10 μM) vs before, >1 activating, <1 inhibiting; for ΔV1/2: shift of V1/2 of current activation curve, negative sign = left-ward shift, CHO cells
Method: The formulation of culture fluid for Chinese hamster […] (CHO) (Culture Collection of Chinese Academy of Sciences): 50/50 DMEM/F-12 (Cellgro, Mamassas, Va.), 10% fetal bovine serum (FBS) (Gibco, Australia) and 2 mM […] (Invitrogen). […] Lipofectamine2000™ agent (Invitrogen) was used for Transfection according to the protocol thereof. […] After cotransfection with GFP (green fluorescent protein), transfected cells could be determined under a fluorescence microscopy.
Whole-cell voltage-clamp recording was performed by using Axopatch-200B amplifier (Molecular Devices, Sunnyvale, Calif.) at room temperature. Borosilicate glass capillary tubes (World Precision Instruments, Sarasota, Fla.) were drawn into electrodes. The electric resistance of the electrodes filled with an intracellular fluid is 3 to 5 MΩ. […] During the recording, an extracellular fluid was continuously perfused by using a BPS perfusion system (ALA Scientific Instruments, Westburg, N.Y.). The formulation of the extracellular fluid was as follows: 140 mM NaCl, 5 mM KCl, 2 mM CaCl2, 1.5 mM MgCl2, 10 mM HEPES and 10 mM glucose (the pH value of the extracellular fluid was adjusted to 7.4 with NaOH). […] Resistors were connected in series to compensate 60 to 80% of signal loss. At present, multivoltage scheme was generally adopted, wherein the clamp voltage was set at −100 mV. Current was induced in cells by a series of 2000 ms stimulating voltage (from −90 mV up to +50 mV, with interval of 10 mV).
In the following table, V1/2 is the voltage at which 50% of cells were activated, ΔV1/2 is amount of a left-ward shift of V1/2, negative sign (−) represents a left-ward shift of the current activation curve and positive sign (+) represents a right-ward shift of the curve. I/I0 is the activation multiple, wherein, I0 is the maximum induced current produced under stimulation of −10 mV testing voltage, I is the maximum induced current produced under stimulation of −10 mV testing voltage after administration (10 μM), I/I0>1 represents activating activity, and I/I0<1 represents inhibiting activity. N is the number of tested cells. NT represents non-tested.

[2] = tested on: Convulsion Induced by Pentylenetetrazole (PTZ); test: Convulsion induced by pentylenetetrazole (PTZ), compounds by gastric lavage, C57BL/6J mice; type: in vivo; details: 30 mg/kg gastric lavage
Method: The compounds to be tested were administrated to animals by gastric lavage (30 mg/kg); one hour later, pentylenetetrazole was administrated by subcutaneous injection (PTZ 80 mg/kg); and response of animals were observed within a period of 60 min.

[3] = Solubility in water (treatment of samples)
[4] = Distribution of K20.2HCl and K21.2HCl in mice's plasma and brain tissue; type: in vivo, KM mice; details: for Kp: brain, read-out: concentration of prototype drug in brain tissue relative to plasma
Description: Two hours after administration, animal were fed uniformly. Specific arrangement was as following table.
Then the residual liquid was absorbed to dryness.

[5] = tested on: Animal Models Induced by PTZ (Pentylenetetrazole); test: PTZ test, compounds by intraperitoneal injection, KM mice; type: in vivo; details: intraperitoneal injection, same dosage, PTZ and MES tests; formate dihydrochloride
Method: Compounds to be tested were administrated by intraperitoneal injection (10 mg/kg, 5 mg/kg, 2.5 mg/kg, 0.1 ml/10 g).

[6] = tested on: Animal Models Induced by MES; test: MES test, compounds orally administrated (gastric lavage), KM mice; type: in vivo; details: gastric lavage; formate dihydrochloride
Method: One time of electrical stimulation was applied to animals through ear clip electrodes, and a convulsion characterized by a tonic hind limb extension was observed. One day before the test, animals were screened in the above procedure to record the values of MES.
1 hour later, MES was applied according to parameters set the last day, and response of animals were observed and recorded immediately.

[7] = tested on: Animal Models Induced by PTZ; test: PTZ test, compounds orally administrated (gastric lavage), KM mice; details: gastric lavage; formate dihydrochloride
Method: Response of animals were observed immediately and recorded within a period of 1 h.

[8] = K21.2HCl 5 mg/kg gastric lavage

Compound: COC(=O)Nc1ccc(NCc2ccc(F)cc2)cc1 [Compound K1]
I/I0 [1]: 2.84 ± 0.08
ΔV1/2 [1]: −8.1 ± 3.1 mV
Latency period of clonus ([2]; PTZ 80 mg/kg s.c. 1 h later): 250 ± 114 s
Latency period of whole-body tonic seizures ([2]; PTZ 80 mg/kg s.c. 1 h later): 1785 ± 408 s
Mortality rate ([2]; PTZ 80 mg/kg s.c. 1 h later): 3/10
Incidence rate of convulsion ([2]; PTZ 80 mg/kg s.c. 1 h later, observed 60 min): 4/10
solubility in water (in words) [3]: can not be easily dissolved in water

Compound: CC(=O)Nc1ccc(NCc2ccc(F)cc2)cc1 [Compound K2]
I/I0 [1]: 1.50 ± 0.08
ΔV1/2 [1]: −3.0 ± 2.0 mV

Compound: C#CCN(Cc1ccc(F)cc1)c1ccc(NC(=O)OCc2ccccc2)cc1 [Compound K4]
I/I0 [1]: 2.09 ± 0.25
ΔV1/2 [1]: −11.5 ± 2.0 mV

Compound: C#CCN(Cc1ccc(F)cc1)c1ccc(NC(=O)OCC(C)C)cc1 [Compound K5]
I/I0 [1]: 1.23 ± 0.08
ΔV1/2 [1]: −14.3 ± 3.3 mV

Compound: CCCCCOC(=O)Nc1ccc(N(Cc2ccc(F)cc2)C(=O)OCCCCC)cc1 [Compound K6]
I/I0 [1]: 1.24 ± 0.02
ΔV1/2 [1]: −1.6 ± 3.0 mV

Compound: C=CCN(Cc1ccc(F)cc1)c1ccc(NC(=O)OCC)cc1 [Compound K7]
I/I0 [1]: 1.35 ± 0.27
ΔV1/2 [1]: −4.7 ± 2.0 mV

Compound: C#CCN(Cc1ccc(F)cc1)c1ccc(NC(=O)OCC)cc1 [Compound K8]
I/I0 [1]: 1.99 ± 0.37
ΔV1/2 [1]: −7.3 ± 2.5 mV

Compound: C#CCN(Cc1ccc(F)cc1)c1ccc(F)c(NC(=O)OC)c1 [Compound K10, methyl 2-fluoro-5-(N-parafluorobenzyl-N-propargyl-imino)-aniline formate]
I/I0 [1]: 2.75 ± 0.31
ΔV1/2 [1]: −18.7 ± 2.6 mV

Compound: C#CCN(Cc1ccc(F)c(C(F)(F)F)c1)c1ccc(F)c(NC(=O)OC)c1 [Compound K11]
I/I0 [1]: 2.24 ± 0.36
ΔV1/2 [1]: −15.7 ± 1.0 mV
anti-convulsive effect (in words) ([2]; PTZ-induced convulsion): comparable anti-convulsive effect

Compound: C#CCN(Cc1cccc(F)c1)c1ccc(NC(=O)OC)cc1 [Compound K12]
I/I0 [1]: 2.33 ± 0.17
ΔV1/2 [1]: −21.1 ± 1.9 mV

Compound: C#CCN(Cc1ccccc1F)c1ccc(NC(=O)OC)cc1 [Compound K13]
I/I0 [1]: 2.31 ± 0.36
ΔV1/2 [1]: −7.6 ± 1.9 mV

Compound: C#CCN(Cc1ccc(F)c(C(F)(F)F)c1)c1ccccc1NC(=O)OC [Compound K14]
I/I0 [1]: 1.43 ± 0.04
ΔV1/2 [1]: −14.7 ± 2.1 mV

Compound: C#CCN(Cc1ccc(F)cc1)c1ccc(NC(=O)OC)c(F)c1 [Compound K15]
I/I0 [1]: 2.09 ± 0.31
ΔV1/2 [1]: −22.0 ± 1.5 mV

Compound: C#CCN(c1cccc(NC(=O)OC)c1)C(C)c1ccc(F)cc1 (stereo not drawn) [Compound K16]
I/I0 [1]: 1.47 ± 0.10
ΔV1/2 [1]: −20.6 ± 4.5 mV

Compound: C#CCN(Cc1ccc(F)c(F)c1)c1ccc(NC(=O)OC)cc1 [Compound K19]
I/I0 [1]: 2.52 ± 0.23
ΔV1/2 [1]: −14.9 ± 2.7 mV

Kp ([4]; male, KM, mouse, oral, 20 mg/kg gastric lavage): 2.3
Compound: C=CCN(Cc1ccc(F)cc1)c1ccc(NC(=O)OCC)c(N)c1 [Compound K20, ethyl 2-amino-4-(N-parafluorobenzyl-N-allyl-imino)-aniline formate]
I/I0 [1]: 1.75 ± 0.12
ΔV1/2 [1]: −49.7 ± 3.4 mV

Compound: C#CCN(Cc1ccc(F)cc1)c1ccc(NC(=O)OCC)c(N)c1 [Compound K21.2HCl, ethyl 2-amino-4-(N-parafluorobenzyl-N-propargyl-imino)-aniline formate dihydrochloride]
anti-convulsive effect compared with retigabine (in words) [5]: superior anti-convulsive effect
effect in MES test (in words) [6]: comparable effect
exposure amount of metabolite retigabine in brain tissue relative to prototype drug [4, 8]: 4.6%
exposure amount of metabolite retigabine in plasma relative to prototype drug [4, 8]: 5.4%
Kp ([4]; male, KM, mouse, oral, 5 mg/kg gastric lavage): 2.4
Tmax ([4]; male, KM, mouse, plasma or brain tissue, oral, K21.2HCl 5 mg/kg gastric lavage, read-out: time to reach the maximum concentrations (Tmax) of prototype drug in plasma or brain tissue): 15 min
effect in PTZ test (in words) [7]: obviously inhibit the tonic seizures

Compound: C#CCN(Cc1ccc(F)cc1)c1ccc(NC(=O)OC)c(NC(=O)OC)c1 [Compound K22, methyl 2-(methoxycarbonyl-imino)-4-(N-parafluorobenzyl-N-propargyl-imino)-aniline formate]
I/I0 [1]: 2.10 ± 0.35
ΔV1/2 [1]: −27.31 ± 3.9 mV

Compound: CC#CCN(Cc1ccc(F)cc1)c1ccc(NC(=O)OCC)c(NC(=O)OCC)c1 [Compound K23]
I/I0 [1]: 1.44 ± 0.14
ΔV1/2 [1]: −15.34 ± 3.8 mV

Compound: CCC#CCN(Cc1ccc(F)cc1)c1ccc(NC(=O)OCC)c(NC(=O)OCC)c1 [Compound K24]
I/I0 [1]: 1.2 ± 0.1
ΔV1/2 [1]: −1.87 ± 2.5 mV

Compound: C#CCN(Cc1ccc(F)cc1)c1ccc2[nH]c(=O)[nH]c2c1 [Compound K25, 5-(N-parafluorobenzyl-N-propargyl-imino)-benzimidazole-2-one]
I/I0 [1]: 1.8 ± 0.1
ΔV1/2 [1]: −5.8 ± 1.7 mV

Compound: CCOC(=O)Nc1ccc(N(CCCC(C)=O)Cc2ccc(F)cc2)cc1NC(=O)OCC [Compound K26]
I/I0 [1]: 1.25 ± 0.07

Compound: C=CCOC(=O)Nc1ccc(N(Cc2ccc(F)cc2)CC(C)C)cc1NC(=O)OCC=C [Compound K27]
I/I0 [1]: 1.52 ± 0.17

Compound: C=C(C)CN(Cc1ccc(F)cc1)c1ccc(NC(=O)OC)c(NC(=O)OC)c1 [Compound K28]
I/I0 [1]: 1.43 ± 0.05

Compound: C=C(C)CN(Cc1ccc(F)cc1)c1ccc(NC(=O)OC(C)(C)C)c(NC(=O)OC(C)(C)C)c1 [Compound K29]
I/I0 [1]: 1.24 ± 0.10

Compound: C=C(C)CN(Cc1ccc(F)cc1)c1ccc(NC(=O)OC(C)C)c(NC(=O)OC(C)C)c1 [Compound K30]
I/I0 [1]: 1.57 ± 0.25

Compound: COC(=O)Nc1ccc(N(CC=C(C)C)Cc2ccc(F)cc2)cc1NC(=O)OC [Compound K31]
I/I0 [1]: 1.36 ± 0.13

Compound: C=C(/C=C/CO)CN(Cc1ccc(F)cc1)c1ccc(NC(=O)OCC)c(NC(=O)OCC)c1 [Compound K32, ethyl 2-(ethoxycarbonyl-imino)-4-[N-parafluorobenzyl-N-1-(6-hydroxyl-2-alkenyl-3-hexylene)-imino]-aniline formate]
I/I0 [1]: 1.76 ± 0.09
ΔV1/2 [1]: −6.0 ± 1.5 mV

Compound: C#CCCOC(=O)Nc1ccc(N(CC#C)Cc2ccc(F)cc2)cc1N [Compound K33]
ΔV1/2 [1]: −36.8 ± 3.3 mV

Compound: C=CCN(Cc1ccc(F)cc1)c1ccc2[nH]c(=O)[nH]c2c1 [Compound K34, 5-(N-parafluorobenzyl-N-allyl-imino)-benzimidazole-2-one]
I/I0 [1]: 1.44 ± 0.16

Compound: CCOC(=O)Nc1ccc(N(CC2=CCCCC2)Cc2ccc(F)cc2)cc1NC(=O)OCC [Compound K38]
I/I0 [1]: 0.16 ± 0.02

Compound: C=C(/C=C/CN)CN(Cc1ccc(F)cc1)c1ccc(NC(=O)OCC)c(NC(=O)OCC)c1 [Compound K39, ethyl 2-(ethoxycarbonyl-imino)-4-[N-parafluorobenzyl-N-1-(6-amino-2-alkenyl-3-hexylene)-imino]-aniline formate]
I/I0 [1]: 1.03 ± 0.11

Source: patent US9353048B2, “Compound as KCNQ potassium channel agonist, preparation method therefor and use thereof” (SHANGHAI INSTITUTE OF MATERIA MEDICA, CHINESE ACADEMY OF …, priority 2011, dated 2016)
